Data on 28 compounds can be found in US8309718B2, “4-pyrazolyl-N-arylpyrimidin-2-amines and 4-pyrazolyl-N-heteroarylpyrimidin-2-amines as janus kinase inhibitors” (Incyte Corporation, priority 2007, dated 2012).

The target of this assay is T1, human JAK2 (Homo sapiens, UniProt O60674).
T1 construct: JAK2 (a.a. 828-1132); His tag (N); made in house; host or cells: insect cells (baculovirus)
Description: In vitro JAK kinase assay (HTRF, phosphorylation of biotinylated peptide). As to conditions: catalytic domain a.a. 828-1132, 30 μM ATP, 500 nM peptide, room temperature 1 hr; read-out: JAK-2 IC50. In kind it is biochemical. The method, boiled down:
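His-tagged human JAK2 catalytic domain (a.a. 828-1132), baculovirus/insect-cell expressed; phosphorylation of 500 nM biotinylated peptide at 30 μM ATP in 50 mM Tris pH 7.8, 100 mM NaCl, 5 mM DTT, 0.01% BSA. 1 h at room temperature, EDTA stop, HTRF read (Eu-Py20/SA-APC); IC50.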

T1 sequence (O60674 828-1132): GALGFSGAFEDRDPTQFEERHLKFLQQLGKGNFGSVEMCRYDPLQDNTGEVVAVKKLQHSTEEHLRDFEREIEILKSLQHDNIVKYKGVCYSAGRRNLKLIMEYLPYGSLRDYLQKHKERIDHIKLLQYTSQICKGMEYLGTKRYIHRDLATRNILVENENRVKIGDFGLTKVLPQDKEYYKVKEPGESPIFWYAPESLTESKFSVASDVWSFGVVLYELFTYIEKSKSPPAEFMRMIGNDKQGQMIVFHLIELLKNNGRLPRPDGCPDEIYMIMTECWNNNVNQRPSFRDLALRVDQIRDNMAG

As usually defined, the IC50 is the point on the concentration scale where inhibition reaches its midpoint. In the case of `CCCN(CC1CC1)C(=O)c1ccc(Nc2nccc(-c3cnn(C(CC#N)C4CCCC4)c3)n2)cc1` (racemic) [Example 125, 4-(4-(1-(2-cyano-1-cyclopentylethyl)-1H-pyrazol-4-yl)pyrimidin-2-ylamino)-N-(cyclopropylmethyl)-N-propylbenzamide], the concentration for half-maximal inhibition (IC50) is < 0.1 µM.
Then `N#CCC1(n2cc(-c3ccnc(Nc4ccc(C(=O)N5CC[C@H](F)C5)cc4)n3)cn2)CC(C#N)C1` (single isomer, unassigned) [Example 294], with < 0.1 µM.
Then `Cc1cnc(Nc2ccc(N3CCOCC3)cc2)nc1-c1cnn(C(CC#N)CC2CCN(C(=O)c3ccc(F)cc3F)CC2)c1` (racemic) [Example 62, 4-(1-(2,4-difluorobenzoyl)piperidin-4-yl)-3-(4-(5-methyl-2-(4-morpholinophenylamino)pyrimidin-4-yl)-1H-pyrazol-1-yl)butanenitrile], with < 0.1 µM; and `COc1cnc(Nc2ccc(N3CCOCC3)cc2)nc1-c1cnn(C(CC#N)C2CCCC2)c1` (racemic) [Example 101, 3-cyclopentyl-3-(4-(5-methoxy-2-(4-morpholinophenylamino)pyrimidin-4-yl)-1H-pyrazol-1-yl)propanenitrile], with < 0.1 µM; and `Cc1cc(OC2CCC(CC#N)(n3cc(-c4ccnc(Nc5ccc(N6CCOCC6)cc5)n4)cn3)CC2)no1` (single isomer, unassigned) [Example 212, 2-(4-(5-methylisoxazol-3-yloxy)-1-(4-(2-(4-morpholinophenylamino)pyrimidin-4-yl)-1H-pyrazol-1-yl)cyclohexyl)acetonitrile], with < 0.1 µM.
Then `N#CCC(C1CCCC1)n1cc(-c2ccnc(Nc3cccc(C(=O)N4CCN(CCO)CC4)c3)n2)cn1` (racemic) [Example 138, 3-cyclopentyl-3-(4-(2-(3-(4-(2-hydroxyethyl)piperazine-1-carbonyl)phenylamino)pyrimidin-4-yl)-1H-pyrazol-1-yl)propanenitrile], with < 0.1 µM; and `CS(=O)(=O)Nc1cccc(Nc2nccc(-c3cnn(C(CC#N)C4CCCC4)c3)n2)c1` (racemic) [Example 115, N-(3-(4-(1-(2-cyano-1-cyclopentylethyl)-1H-pyrazol-4-yl)pyrimidin-2-ylamino)phenyl)methanesulfonamide], with < 0.1 µM; and `N#CCC(C1CCCC1)n1cc(-c2ccnc(Nc3cccc(C(=O)N4CCN(c5ncccn5)CC4)c3)n2)cn1` (racemic) [Example 160, 3-cyclopentyl-3-(4-(2-(3-(4-(pyrimidin-2-yl)piperazine-1-carbonyl)phenylamino)pyrimidin-4-yl)-1H-pyrazol-1-yl)propanenitrile], with < 0.1 µM.
For `COC1CCN(C(=O)c2ccc(Nc3nccc(-c4cnn(C(CC#N)C5CCCC5)c4)n3)cc2)CC1` (racemic) [Example 221, 3-cyclopentyl-3-(4-(2-(4-(4-methoxypiperidine-1-carbonyl)phenylamino)pyrimidin-4-yl)-1H-pyrazol-1-yl)propanenitrile], the concentration for half-maximal inhibition (IC50) was < 0.1 µM.
Then `CC(=O)Nc1ccc(Nc2ncc(C)c(-c3cnn(C(CC#N)C4CCCC4)c3)n2)cc1` (racemic) [Example 76, N-(4-(4-(1-(2-cyano-1-cyclopentylethyl)-1H-pyrazol-4-yl)-5-methylpyrimidin-2-ylamino)phenyl)acetamide], with < 0.1 µM; and `CC(=O)Nc1ccc(Nc2nccc(-c3cnn(C(CC#N)CC4CCN(C(=O)c5ccc(F)cc5F)CC4)c3)n2)cc1` (racemic) [Example 60, N-(4-(4-(1-(1-cyano-3-(1-(2,4-difluorobenzoyl)piperidin-4-yl)propan-2-yl)-1H-pyrazol-4-yl)pyrimidin-2-ylamino)phenyl)acetamide], with < 0.1 µM.
Then `N#CCC(C1CC1)n1cc(-c2ccnc(Nc3ccc(C(=O)N4CCCC4)cc3)n2)cn1` (racemic) [Example 253, 3-cyclopropyl-3-(4-(2-(4-(pyrrolidine-1-carbonyl)phenylamino)pyrimidin-4-yl)-1H-pyrazol-1-yl)propanenitrile], with < 0.1 µM; and `N#CCC(C1CCCC1)n1cc(-c2ccnc(Nc3ccc(C(=O)NCC4CCOCC4)cc3)n2)cn1` (racemic) [Example 214, 4-(4-(1-(2-cyano-1-cyclopentylethyl)-1H-pyrazol-4-yl)pyrimidin-2-ylamino)-N-((tetrahydro-2H-pyran-4-yl)methyl)benzamide], with < 0.1 µM; and `Cc1cnc(Nc2cccc(-c3cnco3)c2)nc1-c1cnn(C(CC#N)C2CCCC2)c1` (racemic) [Example 84, 3-cyclopentyl-3-(4-(5-methyl-2-(3-(oxazol-5-yl)phenylamino)pyrimidin-4-yl)-1H-pyrazol-1-yl)propanenitrile], with < 0.1 µM.
Then `N#CCC(C1CCOCC1)n1cc(-c2ccnc(Nc3ccc(C(=O)N4CC[C@H](C#N)C4)cc3)n2)cn1` (mixture of isomers) [Example 317, (3S)-1-{4-[(4-{1-[2-cyano-1-(tetrahydro-2H-pyran-4-yl)ethyl]-1H-pyrazol-4-yl}pyrimidin-2-yl)amino]benzoyl}pyrrolidine-3-carbonitrile], with < 0.1 µM; and `CN1CCC(NC(=O)c2cccc(Nc3nccc(-c4cnn(C(CC#N)C5CCCC5)c4)n3)c2)CC1` (racemic) [Example 154, 3-(4-(1-(2-cyano-1-cyclopentylethyl)-1H-pyrazol-4-yl)pyrimidin-2-ylamino)-N-(1-methylpiperidin-4-yl)benzamide], with < 0.1 µM.
Consider `Cc1cnc(Nc2ccc(N3CCOCC3)cc2)nc1-c1cnn(C(CC#N)C2CCCC2)c1` (racemic) [Example 72, 3-cyclopentyl-3-(4-(5-methyl-2-(4-morpholinophenylamino)pyrimidin-4-yl)-1H-pyrazol-1-yl)propanenitrile], for which the IC50 is < 0.1 µM.
Then `N#CCC(C1CCCC1)n1cc(-c2ccnc(Nc3ccc(NC(=O)c4cc(F)cc(F)c4)cc3)n2)cn1` (racemic) [Example 185, N-(4-(4-(1-(2-cyano-1-cyclopentylethyl)-1H-pyrazol-4-yl)pyrimidin-2-ylamino)phenyl)-3,5-difluorobenzamide], with < 0.1 µM.
`N#CCC(C1CCCC1)n1cc(-c2ccnc(Nc3cccc(C(=O)N4CCC(Cc5cccnc5)CC4)c3)n2)cn1` (racemic) [Example 144, 3-cyclopentyl-3-(4-(2-(3-(4-(pyridin-3-ylmethyl)piperidine-1-carbonyl)phenylamino)pyrimidin-4-yl)-1H-pyrazol-1-yl)propanenitrile]: the IC50 is < 0.1 µM.
Then `N#CCC(C1CCC1)n1cc(-c2ccnc(Nc3cccc(-c4cnco4)c3)n2)cn1` (racemic) [Example 176, 3-cyclobutyl-3-(4-(2-(3-(oxazol-5-yl)phenylamino)pyrimidin-4-yl)-1H-pyrazol-1-yl)propanenitrile], with < 0.1 µM; and `CCS(=O)(=O)N1CC(CC#N)(n2cc(-c3ccnc(Nc4ccc(C(=O)N5CCOCC5)cc4)n3)cn2)C1` [Example 255, 2-(1-(ethylsulfonyl)-3-(4-(2-(4-(morpholine-4-carbonyl)phenylamino)pyrimidin-4-yl)-1H-pyrazol-1-yl)azetidin-3-yl)acetonitrile], with < 0.1 µM.
For the compound `N#CCC1(n2cc(-c3ccnc(Nc4cccc(-c5cnco5)c4)n3)cn2)CN(S(=O)(=O)C2CC2)C1` [Example 18, 2-(1-(cyclopropylsulfonyl)-3-(4-(2-(3-(oxazol-5-yl)phenylamino)pyrimidin-4-yl)-1H-pyrazol-1-yl)azetidin-3-yl)acetonitrile], the half-inhibitory concentration (IC50) was < 0.1 µM.
In the case of `CC[C@H](NC(=O)c1ccc(Nc2nccc(-c3cnn(C(CC#N)C4CCCC4)c3)n2)cc1)C(=O)N(C)C` (mixture of isomers) [Example 235, 4-(4-(1-(2-cyano-1-cyclopentylethyl)-1H-pyrazol-4-yl)pyrimidin-2-ylamino)-N—((S)-1-(dimethylamino)-1-oxobutan-2-yl)benzamide], the IC50 is < 0.1 µM.
Then `COc1cnc(Nc2ccc(N3CCCC3=O)cc2)nc1-c1cnn(C(CC#N)C2CCCC2)c1` (racemic) [Example 130, 3-cyclopentyl-3-(4-(5-methoxy-2-(4-(2-oxopyrrolidin-1-yl)phenylamino)pyrimidin-4-yl)-1H-pyrazol-1-yl)propanenitrile], with < 0.1 µM; and `N#CCC(C1CCCC1)n1cc(-c2ccnc(Nc3cccc(C(=O)NCc4cccnc4)c3)n2)cn1` (racemic) [Example 146, 3-(4-(1-(2-cyano-1-cyclopentylethyl)-1H-pyrazol-4-yl)pyrimidin-2-ylamino)-N-(pyridin-3-ylmethyl)benzamide], with < 0.1 µM; and `N#CCC(C1CCCC1)n1cc(-c2ccnc(Nc3ccc(C(=O)N4CCC(Oc5ccccn5)C4)cc3)n2)cn1` (mixture of isomers) [Example 233, 3-cyclopentyl-3-(4-(2-(4-(3-(pyridin-2-yloxy)pyrrolidine-1-carbonyl)phenylamino)pyrimidin-4-yl)-1H-pyrazol-1-yl)propanenitrile], with < 0.1 µM.
On to `N#CCC(C1CCNCC1)n1cc(-c2ccnc(Nc3ccc(N4CCOCC4)cc3)n2)cn1` (racemic) [Example 22, 3-(4-(2-(4-morpholinophenylamino)pyrimidin-4-yl)-1H-pyrazol-1-yl)-3-(piperidin-4-yl)propanenitrile], for which the IC50 was < 0.1 µM.
Then `Cc1cnc(Nc2ccc(C(=O)N(C)C)cc2)nc1-c1cnn(C(CC#N)CC2CCN(C(=O)c3ccc(F)cc3F)CC2)c1` (racemic) [Example 68, 4-(4-(1-(1-cyano-3-(1-(2,4-difluorobenzoyl)piperidin-4-yl)propan-2-yl)-1H-pyrazol-4-yl)-5-methylpyrimidin-2-ylamino)-N,N-dimethylbenzamide], with < 0.1 µM.
